Results: ChEMBL document CHEMBL5247629, “C-6 fluorinated casuarines as highly potent and selective amyloglucosidase inhibitors: Synthesis and structure-activity relationship study” (Eur J Med Chem, 2022)

Legend:
[1] = biological target: Alpha-glucosidase (Saccharomyces cerevisiae S288c) (UniProt P53341+P38158+P07265); assay: Inhibition of yeast alpha-glucosidase using p-nitrophenyl glycoside as substrate at 1000 uM by spectrometric method relative to control; format: protein assay
Oryza sativa = assay: Inhibition of rice alpha-glucosidase using p-nitrophenyl glycoside as substrate at 1000 uM by spectrometric method relative to control
Rattus norvegicus = species: Rattus norvegicus; assay: Inhibition of rat intestinal maltase using maltose as substrate at 1000 uM at pH 6.8 by colorimetric method relative to control; format: tissue-based; settings: Intestine
Prunus dulcis [2] = assay: Inhibition of almond beta-glucosidase using p-nitrophenyl glycoside as substrate at 1000 uM by spectrometric method relative to control
Bos taurus [3] = species: Bos taurus; assay: Inhibition of bovine liver beta-glucosidase using p-nitrophenyl glycoside as substrate at 1000 uM by spectrometric method relative to control; format: tissue-based
[4] = biological target: T1, Alpha-mannosidase (Canavalia ensiformis) (UniProt C0HJB3); assay: Inhibition of jack bean alpha-mannosidase using p-nitrophenyl glycoside as substrate at 1000 uM by spectrometric method relative to control
T1 sequence (whole entry): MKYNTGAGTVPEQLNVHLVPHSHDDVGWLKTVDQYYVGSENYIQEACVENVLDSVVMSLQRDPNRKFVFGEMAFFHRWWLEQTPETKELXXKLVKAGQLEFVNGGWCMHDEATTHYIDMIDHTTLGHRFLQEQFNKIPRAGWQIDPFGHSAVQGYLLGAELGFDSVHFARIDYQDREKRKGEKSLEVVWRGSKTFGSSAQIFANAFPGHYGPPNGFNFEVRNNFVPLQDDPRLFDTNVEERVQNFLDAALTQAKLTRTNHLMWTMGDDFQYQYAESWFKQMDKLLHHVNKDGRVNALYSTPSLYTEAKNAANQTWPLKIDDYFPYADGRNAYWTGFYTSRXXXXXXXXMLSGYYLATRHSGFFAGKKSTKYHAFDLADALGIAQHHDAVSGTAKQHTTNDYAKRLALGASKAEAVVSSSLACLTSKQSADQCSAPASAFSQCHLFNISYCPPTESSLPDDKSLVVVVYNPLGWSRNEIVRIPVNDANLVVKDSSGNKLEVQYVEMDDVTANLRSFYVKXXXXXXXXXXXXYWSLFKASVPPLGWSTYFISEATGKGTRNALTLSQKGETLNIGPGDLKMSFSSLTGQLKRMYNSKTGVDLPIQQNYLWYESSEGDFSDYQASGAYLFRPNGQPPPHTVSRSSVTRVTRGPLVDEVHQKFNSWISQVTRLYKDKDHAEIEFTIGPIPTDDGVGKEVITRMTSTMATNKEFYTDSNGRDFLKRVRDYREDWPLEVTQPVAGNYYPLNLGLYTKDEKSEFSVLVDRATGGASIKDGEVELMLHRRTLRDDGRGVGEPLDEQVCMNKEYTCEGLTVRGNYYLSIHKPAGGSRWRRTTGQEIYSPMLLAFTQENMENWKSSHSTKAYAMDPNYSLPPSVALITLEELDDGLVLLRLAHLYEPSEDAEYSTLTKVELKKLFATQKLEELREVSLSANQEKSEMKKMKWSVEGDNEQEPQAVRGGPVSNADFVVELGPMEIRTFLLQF

[5] = biological target: Alpha-galactosidase (Coffea arabica) (UniProt Q42656); assay: Inhibition of coffee bean alpha-galactosidase using p-nitrophenyl glycoside as substrate at 1000 uM by spectrometric method relative to control
Bos taurus [6] = species: Bos taurus; assay: Inhibition of bovine liver beta-galactosidase using p-nitrophenyl glycoside as substrate at 1000 uM by spectrometric method relative to control; format: tissue-based
Helix pomatia [7] = assay: Inhibition of snail beta-mannosidase using p-nitrophenyl glycoside as substrate at 1000 uM by spectrometric method relative to control
[8] = biological target: T2, Tissue alpha-L-fucosidase (Bos taurus) (UniProt Q2KIM0); assay: Inhibition of bovine kidney alpha-L-fucosidase using p-nitrophenyl glycoside as substrate at 1000 uM by spectrometric method relative to control; format: tissue-based
T2 sequence (whole entry): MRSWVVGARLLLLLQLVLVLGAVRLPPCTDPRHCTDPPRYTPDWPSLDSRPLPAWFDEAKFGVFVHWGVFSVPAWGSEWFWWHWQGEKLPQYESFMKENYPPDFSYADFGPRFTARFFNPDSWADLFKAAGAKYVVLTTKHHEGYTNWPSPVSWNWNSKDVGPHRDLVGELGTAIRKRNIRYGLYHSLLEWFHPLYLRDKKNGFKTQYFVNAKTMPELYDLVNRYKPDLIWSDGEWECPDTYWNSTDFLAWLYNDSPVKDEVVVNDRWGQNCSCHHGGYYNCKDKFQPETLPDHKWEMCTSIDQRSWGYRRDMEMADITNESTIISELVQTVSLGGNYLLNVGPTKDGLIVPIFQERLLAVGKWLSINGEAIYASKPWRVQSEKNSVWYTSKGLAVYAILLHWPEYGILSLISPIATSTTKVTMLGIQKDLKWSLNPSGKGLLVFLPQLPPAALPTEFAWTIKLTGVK

Sus scrofa = species: Sus scrofa; assay: Inhibition of porcine kidney alpha/alpha-trehalase using p-nitrophenyl glycoside as substrate at 1000 uM by spectrometric method relative to control; format: tissue-based
[9] = Inhibition of Aspergillus niger amyloglucosidase using p-nitrophenyl glycoside as substrate by spectrometric method
Penicillium decumbens [10] = assay: Inhibition of Penicillium decumbens alpha-L-rhamnosidase using p-nitrophenyl glycoside as substrate at 1000 uM by spectrometric method relative to control
Escherichia coli [11] = assay: Inhibition of Escherichia coli beta-glucuronidase using p-nitrophenyl glycoside as substrate at 1000 uM by spectrometric method relative to control
Bos taurus [12] = species: Bos taurus; assay: Inhibition of bovine liver beta-glucuronidase using p-nitrophenyl glycoside as substrate at 1000 uM by spectrometric method relative to control; format: tissue-based
[13] = Inhibition of rice alpha-glucosidase using p-nitrophenyl glycoside as substrate by spectrometric method; parameters: species or system Oryza sativa
[14] = Inhibition of rat intestinal maltase using maltose as substrate at pH 6.8 by colorimetric method; format: tissue-based, Intestine
[15] = Inhibition of Aspergillus niger amyloglucosidase
Penicillium decumbens [16] = assay: Inhibition of Penicillium decumbens alpha-L-rhamnosidase at 1000 uM relative to control
Alpha-glucosidase = Alpha-glucosidase (Saccharomyces cerevisiae S288c, UniProt P53341+P38158+P07265); assay: Inhibition of yeast alpha-glucosidase; format: protein assay
[17] = Inhibition of rice alpha-glucosidase; parameters: species or system Oryza sativa
[18] = Inhibition of rat intestinal maltase; format: tissue-based, Intestine
Prunus dulcis [19] = assay: Inhibition of almond beta-glucosidase at 1000 uM relative to control
Bos taurus [20] = species: Bos taurus; assay: Inhibition of bovine liver beta-glucosidase at 1000 uM relative to control; format: tissue-based
[21] = biological target: Alpha-galactosidase (Coffea arabica) (UniProt Q42656); assay: Inhibition of coffee bean alpha-galactosidase at 1000 uM relative to control
Bos taurus [22] = species: Bos taurus; assay: Inhibition of bovine liver beta-galactosidase at 1000 uM relative to control
[23] = biological target: T1, Alpha-mannosidase (Canavalia ensiformis); assay: Inhibition of jack bean alpha-mannosidase at 1000 uM relative to control
Helix pomatia [24] = assay: Inhibition of snail beta-mannosidase at 1000 uM relative to control
[25] = biological target: T2, Tissue alpha-L-fucosidase (Bos taurus); assay: Inhibition of bovine kidney alpha-L-fucosidase at 1000 uM relative to control; format: tissue-based
[26] = Inhibition of porcine kidney alpha/alpha-trehalase; format: tissue-based, Sus scrofa
Escherichia coli [27] = assay: Inhibition of Escherichia coli beta-glucuronidase at 1000 uM relative to control
Bos taurus [28] = species: Bos taurus; assay: Inhibition of bovine liver beta-glucuronidase at 1000 uM relative to control; format: tissue-based

Alpha-galactosidase (Coffea arabica), sequence (Q42656 16-378 limits assumed): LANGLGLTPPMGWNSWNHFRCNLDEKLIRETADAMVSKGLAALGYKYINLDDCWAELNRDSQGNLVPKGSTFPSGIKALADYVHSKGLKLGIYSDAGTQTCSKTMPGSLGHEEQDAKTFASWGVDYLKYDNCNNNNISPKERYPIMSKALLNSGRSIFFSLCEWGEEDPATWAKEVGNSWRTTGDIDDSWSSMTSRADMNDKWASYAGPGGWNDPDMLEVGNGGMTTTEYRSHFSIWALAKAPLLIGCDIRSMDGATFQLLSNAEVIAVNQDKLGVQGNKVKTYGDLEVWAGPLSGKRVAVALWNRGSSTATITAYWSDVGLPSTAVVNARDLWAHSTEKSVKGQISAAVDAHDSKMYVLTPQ

Row | Compound | inhibition [1] [%] | inhibition (Prunus dulcis [2]) [%] | inhibition (Bos taurus [3]) [%] | inhibition [4] [%] | inhibition [5] [%] | inhibition (Bos taurus [6]) [%] | inhibition (Helix pomatia [7]) [%] | inhibition [8] [%] | inhibition (Sus scrofa) [%] | IC50 [9] [µM] | pIC50 [9] | inhibition (Penicillium decumbens [10]) [%] | inhibition (Escherichia coli [11]) [%] | inhibition (Bos taurus [12]) [%] | IC50 [15] [µM] | other results
1 | OC[C@@H]1[C@@H](O)[C@H](O)[C@H]2C[C@H](F)CN12 | 0 | 36.8 | 25.5 | 0 | 2.9 | 25.8 | 0 | 0 | 23 | 2.2 | 5.658 | 9.9 | 0 | 14.8 |  | inhibition (Oryza sativa): 10%; inhibition (Rattus norvegicus): 7.9%
2 | OC[C@@H]1[C@@H](O)[C@H](O)[C@H]2[C@@H](O)[C@@H](F)CN21 | 18 | 13.6 | 35.9 | 3.3 | 0 | 38 | 0 | 14 | 30.4 | 248 | 3.606 | 1.7 | 7 | 13.3 |  | IC50 [13]: 350 µM; IC50 [14]: 927 µM
3 | OC[C@@H]1[C@@H](O)[C@H](O)[C@H]2[C@H](F)[C@H](O)CN21 |  |  |  |  |  |  |  |  |  |  | 5.347 |  |  |  | 4.5 | 
4 | OC[C@@H]1[C@@H](O)[C@H](O)[C@H]2[C@@H](F)[C@@H](O)CN21 |  |  |  |  |  |  |  |  |  |  | 3.818 |  |  |  | 152 | 
5 | OC[C@@H]1[C@@H](O)[C@H](O)[C@H]2[C@@H](O)C(F)(F)CN21 | 5.6 | 3.5 | 12 | 0.8 | 0.2 | 6.2 | 0 | 6.4 | 9.2 | 246 | 3.609 | 0 | 2.6 | 10.1 |  | inhibition (Oryza sativa): 7.7%; inhibition (Rattus norvegicus): 28.4%
6 | OC[C@@H]1[C@@H](O)[C@H](O)[C@@H]2N1C[C@H](O)C2(F)F |  |  |  |  |  |  |  |  |  |  | 4.409 |  |  |  | 39 | 
7 | OC[C@@H]1[C@@H](O)[C@H](O)[C@H]2C[C@@H](F)CN12 | 30.1 | 17.7 | 24.3 | 2.3 | 6.7 | 29.9 | 4.3 | 0.9 | 42.3 | 633 | 3.199 | 4.9 | 1.2 | 21.9 |  | inhibition (Oryza sativa): 17.7%; inhibition (Rattus norvegicus): 30.9%
8 | OC[C@@H]1[C@@H](O)[C@H](O)[C@H]2[C@H](F)[C@@H](O)CN21 |  |  |  |  |  |  |  |  |  |  | 5.276 |  |  |  | 5.3 | 
9 | OC[C@@H]1[C@@H](O)[C@H](O)[C@H]2CC(F)(F)CN12 | 3.6 | 11.4 | 12.5 | 0 | 1.6 | 22.4 | 0 | 0 | 3.2 | 27 | 4.569 | 3 | 0 | 0 |  | inhibition (Oryza sativa): 15.4%; inhibition (Rattus norvegicus): 7.9%
10 | OC[C@@H]1[C@@H](O)[C@H](O)[C@H]2[C@@H](O)[C@@H](O)CN21 |  |  |  |  |  |  |  |  |  |  | 4.194 |  |  |  | 64 | 
11 | OC[C@@H]1[C@@H](O)[C@H](O)[C@H]2[C@@H](F)CCN21 |  |  |  |  |  |  |  |  |  |  | 4.092 |  |  |  | 81 | 
12 | OC[C@@H]1[C@@H](O)[C@H](O)[C@H]2[C@@H](O)[C@H](F)CN21 | 0 | 8.5 | 32.3 | 0 | 0 | 17.6 | 0.8 | 0 | 30.4 | 11 | 4.959 | 0 | 2.9 | 23.1 |  | inhibition (Oryza sativa): 28.4%; inhibition (Rattus norvegicus): 41.7%
13 | OC[C@@H]1[C@@H](O)[C@H](O)[C@H]2[C@H](O)[C@@H](O)CN21 [CASUARINE] |  |  |  |  |  |  |  |  |  |  | 5.201 |  |  |  | 6.3 | inhibition (Penicillium decumbens [16]): 4.6%; IC50 (Alpha-glucosidase): 71 µM; IC50 [17]: 14 µM; IC50 [18]: 3.1 µM; inhibition (Prunus dulcis [19]): 12%; inhibition (Bos taurus [20]): 7.5%; inhibition [21]: 3.7%; inhibition (Bos taurus [22]): 10.2%; inhibition [23]: 0%; inhibition (Helix pomatia [24]): 0%; inhibition [25]: 0%; IC50 [26]: 157 µM; inhibition (Escherichia coli [27]): 1.8%; inhibition (Bos taurus [28]): 17.3%
14 | OC[C@@H]1[C@@H](O)[C@H](O)[C@H]2[C@H](O)[C@@H](F)CN21 | 41.9 | 21.5 | 18.8 | 0 | 5 | 36.7 | 6.2 | 14.6 | 34.4 | 35 | 4.456 | 14.1 | 7.5 | 33.2 |  | IC50 [13]: 771 µM; IC50 [14]: 313 µM
15 | OC[C@@H]1[C@@H](O)[C@H](O)[C@H]2[C@H](O)[C@H](O)CN21 |  |  |  |  |  |  |  |  |  |  | 5.276 |  |  |  | 5.3 | inhibition (Penicillium decumbens [16]): 13.2%; IC50 (Alpha-glucosidase): 46 µM; IC50 [17]: 68 µM; IC50 [18]: 13 µM; inhibition (Prunus dulcis [19]): 31.9%; inhibition (Bos taurus [20]): 1.9%; inhibition [21]: 6%; inhibition (Bos taurus [22]): 5.9%; inhibition [23]: 1.1%; inhibition (Helix pomatia [24]): 3%; inhibition [25]: 0%; IC50 [26]: 9.7 µM; inhibition (Escherichia coli [27]): 3.1%; inhibition (Bos taurus [28]): 18.4%
16 | OC[C@@H]1[C@@H](O)[C@H](O)[C@@H]2N1C[C@@H](O)C2(F)F |  |  |  |  |  |  |  |  |  |  | 4.222 |  |  |  | 60 | 
17 | OC[C@@H]1[C@@H](O)[C@H](O)[C@H]2[C@@H](F)[C@H](O)CN21 |  |  |  |  |  |  |  |  |  |  | 3.777 |  |  |  | 167 | 
